Assay results as given in patent US20230099441A1, “HETEROCYCLIC COMPOUND, APPLICATION THEREOF, AND COMPOSITION CONTAINING SAME” (GenEros Biopharma Ltd., priority 2019, published 2023).

Columns and labels:
[1] = system: STAT5 Y694 phosphorylation; test: Protein electrophoresis and blotting of STAT5 Y694 phosphorylation in Jurkat cells stimulated with human interferon beta; type: cell-based; settings: for Example of Effect 1: Inhibiting Ability (Protein Electrophoresis and Blotting): observed pSTAT5 bands at 10 μM and 100 μM; for Inhibiting Ratio (0% for vehicle control): 1 hour pretreatment, 20 ng/ml human interferon beta 30 minutes, pSTAT5/GAPDH
Method in brief: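 Serum-free Jurkat cells pretreated with compound 1 h, then stimulated with 20 ng/ml human interferon beta for 30 min at 37° C. pSTAT5 measured by western blot with chemiluminescence, normalized to GAPDH and expressed as percent of DMSO control.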

[2] = system: STAT5 Y694 phosphorylation; test: HTRF experiment: STAT5 Y694 phosphorylation in Hela cells stimulated with human interferon beta; type: cell-based; settings: 2 hours pretreatment, 10 nM human interferon beta 30 minutes
Experimental: Example of Effect 3: HTRF Experiment
Human Interferon 3 (IFN-0) (GenScript, Cat #P01574), STAT5 Y694 phosphorylation detection kit (STAT5 phospho-Y694 kit) (Cisbio; Cat #64AT5PEG).
Hela cells (ATCC American Standard Culture Center, CCL-2) were cultured in a 96-well plate at a density of 3×10^4 cells/well with DMEM medium containing 5% fetal bovine serum and maintained at 37° C. in a humidified incubator with 5% carbon dioxide overnight. On the second day, the original DMEM medium in the 96-well plate was sucked dry, and an equal volume of medium containing different concentrations of compounds (the mother liquor of the compound prepared by dimethyl sulfoxide was diluted in the medium at the required concentration) was added for pretreatment for 2 hours, and then it was placed in an incubator at 37° C. Then human interferon beta with a final concentration of 10 nM was added to stimulate, and it was gently shaken to mix well and then placed in an incubator at 37° C. for 30 minutes.
The medium was removed, an appropriate volume of PBS was added to wash, and then it was sucked dry. Then 40 microliters of 1× Lysis Buffer was added to each well and it was stood for 30 minutes at room temperature (1 ml 1× lysate preparation: 740 μl ddH2O was added to 250 μl 4× lysate and 10 μl Blocking reagent and it was mixed thoroughly). After 30 minutes, the cells were repeatedly blown until the lysis solution was not viscous (avoiding blowing out bubbles) to achieve sufficient lysis.
After overnight incubation, the signals of 665 nm and 620 nm were detected in a multifunctional microplate reader. The calculation formula for the detection of STAT5 Y694 phosphorylation is: Ratio=[(signal 665 nm)/(signal 620 nm)]×10^4. Treatment with dimethyl sulfoxide alone was the baseline control (Ratiobase), and the human interferon β stimulation without addition of the compound was the STAT5 Y694 full phosphorylation activation control (Ratiostimulation), the inhibition rate of STAT5 Y694 phosphorylation of different samples was normalized: Inhibition rate=[1−(RatioExperiment−Ratiobase)/(Ratiostimulation−Ratiobase)]*100.

## O=C(Cc1ccc(C(F)(F)F)cc1)N1CCC(N2C(=O)NCc3ccccc32)CC1 [GEN1-162, 1-(1-(2-(4-(trifluoromethyl)phenyl)acetyl)piperidin-4-yl)-3,4-dihydroquinazolin-2(1H)-one]
[1]
  Example of Effect 1: Inhibiting Ability (Protein Electrophoresis and Blotting): +
[2]
  Example of Effect 3: Inhibiting Ratio@10 μM (HTRF Experiment): 22.04%

## O=C(C[C@H]1CC[C@H](C(F)(F)F)CC1)N1CCC(n2c(=O)[nH]c3ccccc32)CC1 [GEN1-108, (trans)-1-(1-(2-(4-(trifluoromethyl)cyclohexyl)acetyl)piperidin-4-yl)-1H-benzo[d]imidazol-2(3H)-one]
[1]
  Example of Effect 1: Inhibiting Ability (Protein Electrophoresis and Blotting): +
[2]
  Example of Effect 3: Inhibiting Ratio@10 μM (HTRF Experiment): 38.81%

## O=C(Cc1ccc2ncccc2c1)N1CCCC(n2c(=O)[nH]c3cccc(C(F)(F)F)c32)CC1 (stereo not drawn) [GEN1-173, 1-(1-(2-(quinolin-6-yl)acetyl)azacycloheptane-4-yl)-7-(trifluoromethyl)-1,3-dihydro-2H-benzo[d]imidazol-2-one]
[1]
  Example of Effect 1: Inhibiting Ability (Protein Electrophoresis and Blotting): +
[2]
  Example of Effect 3: Inhibiting Ratio@10 μM (HTRF Experiment): 50.75%

## CC(=O)/N=c1\[nH]c2cccc(C(F)(F)F)c2n1C1CCN(C(=O)Cc2ccc3ncccc3c2)CC1 [GEN1-171]
[1]
  Example of Effect 1: Inhibiting Ability (Protein Electrophoresis and Blotting): −
[2]
  Example of Effect 3: Inhibiting Ratio@10 μM (HTRF Experiment): 9.85%

## O=C(Cc1ccc(C(F)(F)F)cc1)N1CCC(n2c(=O)[nH]c3c(N4CCOCC4)cccc32)CC1 [GEN1-154, 4-morpholino-1-(1-(2-(4-(trifluoromethyl)phenyl)acetyl)piperidin-4-yl)-1H-benzo[d]imidazol-2(3H)-one]
[1]
  Example of Effect 1: Inhibiting Ability (Protein Electrophoresis and Blotting): −
[2]
  Example of Effect 3: Inhibiting Ratio@10 μM (HTRF Experiment): 6.10%

## O=C(Cc1ccc(C(F)(F)F)cc1)N1CCC2(CC1)C(=O)NCN2c1ccccc1 [GEN1-049, 1-phenyl-8-(2-(4-(trifluoromethyl)phenyl)acetyl)-1,3,8triazaspiro[4.5]decane-4-one]
[1]
  Example of Effect 1: Inhibiting Ability (Protein Electrophoresis and Blotting): −
[2]
  Example of Effect 3: Inhibiting Ratio@10 μM (HTRF Experiment): 18.33%

## CC(C)(C(=O)N1CCC(n2c(=O)[nH]c3cccc(C(F)(F)F)c32)CC1)c1ccc(C(F)(F)F)cc1 [GEN1-158, 1-(1-(2-methyl-2-(4-(trifluoromethyl)phenyl)propionyl)piperidin-4-yl)-7-(trifluoromethyl)-1H-benzo[d]imidazol-2(3H)-one]
[1]
  Example of Effect 1: Inhibiting Ability (Protein Electrophoresis and Blotting): −
[2]
  Example of Effect 3: Inhibiting Ratio@10 μM (HTRF Experiment): 0.16%

## O=C(Cc1ccc(C(F)(F)F)cc1)N1CCC(Cn2c(=O)[nH]c3cccc(C(F)(F)F)c32)CC1 [GEN1-174, 7-(trifluoromethyl)-1-((1-(2-(4-(trifluoromethyl)phenyl)acetyl)piperidin-4-yl)methyl)-1H-benzo[d]imidazol-2(3H)-one]
[1]
  Example of Effect 1: Inhibiting Ability (Protein Electrophoresis and Blotting): +
[2]
  Example of Effect 3: Inhibiting Ratio@10 μM (HTRF Experiment): 39.65%

## N#Cc1cccc2[nH]c(=O)n(C3CCN(C(=O)Cc4ccc5ncccc5c4)CC3)c12 [GEN1-151, 2-oxo-3-(1-(2-(quinolin-6-yl)acetyl)piperidin-4-yl)-2,3-dihydro-1H-benzo[d]imidazol-4-carbonitrile]
[1]
  Example of Effect 1: Inhibiting Ability (Protein Electrophoresis and Blotting): +
[2]
  Example of Effect 3: Inhibiting Ratio@10 μM (HTRF Experiment): 39.02%

## O=C(Cc1ccc(C(F)(F)F)cc1)N1CCC(n2c(=O)[nH]c3c(C(F)(F)F)cccc32)CC1 [GEN1-001, 4-(trifluoromethyl)-1-(1-(2-(4-(trifluoromethyl)phenyl)acetyl)piperidin-4-yl)-1H-benzo[d]imidazole-2(3H)-one]
[1]; 1 μM
  Inhibiting Ratio (0% for vehicle control): 11.0%
[1]; 10 μM
  Inhibiting Ratio (0% for vehicle control): 29.2%
[1]; 100 μM
  Inhibiting Ratio (0% for vehicle control): 96.8%
[1]
  Example of Effect 1: Inhibiting Ability (Protein Electrophoresis and Blotting): +
[2]
  Example of Effect 3: Inhibiting Ratio@10 μM (HTRF Experiment): 3.75%

## O=c1[nH]c2ccccc2n1C1CCN(C(=S)Cc2ccc(C(F)(F)F)cc2)CC1 [GEN1-128]
[1]
  Example of Effect 1: Inhibiting Ability (Protein Electrophoresis and Blotting): +
[2]
  Example of Effect 3: Inhibiting Ratio@10 μM (HTRF Experiment): 13.88%

## N#Cc1cccc2[nH]c(=O)n(C3CCN(C(=O)Cc4ccc(C(F)(F)F)cc4)CC3)c12 [GEN1-014, 2-oxo-3-(1-(2-(4-(trifluoromethyl)phenyl)acetyl)piperidin-4-yl)-2,3-dihydro-1H-benzo[d]imidazole-4-carbonitrile]
[1]; 1 μM
  Inhibiting Ratio (0% for vehicle control): 14.2%
[1]; 10 μM
  Inhibiting Ratio (0% for vehicle control): 78.8%
[1]; 100 μM
  Inhibiting Ratio (0% for vehicle control): 99.1%
[1]
  Example of Effect 1: Inhibiting Ability (Protein Electrophoresis and Blotting): +
[2]
  Example of Effect 3: Inhibiting Ratio@10 μM (HTRF Experiment): 16.12%

## O=C1CN(C2CCN(C(=O)Cc3ccc(C(F)(F)F)cc3)CC2)c2ccccc2N1 [GEN1-052, 4-(1-(2-(4-(trifluoromethyl)phenyl)acetyl)piperidin-4-yl)-3,4-dihydroquinoxaline-2(1H)-one]
[1]
  Example of Effect 1: Inhibiting Ability (Protein Electrophoresis and Blotting): +
[2]
  Example of Effect 3: Inhibiting Ratio@10 μM (HTRF Experiment): 8.83%

## COc1ccc(CC(=O)N2CCC(n3c(=O)[nH]c4cccc(C(F)(F)F)c43)CC2)cc1OC [GEN1-168, 1-(1-(2-(3,4-dimethoxyphenyl)acetyl)piperidin-4-yl)-7-(trifluoromethyl)-1,3-dihydro-2H-benzo[d]imidazol-2-one]
[1]
  Example of Effect 1: Inhibiting Ability (Protein Electrophoresis and Blotting): +
[2]
  Example of Effect 3: Inhibiting Ratio@10 μM (HTRF Experiment): 47.57%

## O=C(Cc1ccc(C(F)(F)F)cc1)N1CCC(n2c(=O)[nH]c3ccc(C4CC4)cc32)CC1 [GEN1-089, 6-cyclopropyl-1-(1-(2-(4-(trifluoromethyl)phenyl)acetyl)piperidin-4-yl)-1H-benzo[d]imidazol-2(3H)-one]
[1]
  Example of Effect 1: Inhibiting Ability (Protein Electrophoresis and Blotting): +
[2]
  Example of Effect 3: Inhibiting Ratio@10 μM (HTRF Experiment): 7.83%
